Legend:
[1] = system: polyglucosan body (PB) in APBD patient-derived fibroblasts; assay: High content (image-based) PAS screening assay for polyglucosan bodies; format: cell-based, human; settings: 0, 1, 5, 10 and 50 μM
Protocol: All the steps of the assay were performed automatically using a Freedom Evo 150 liquid handling robot (Tecan). APBD patient-derived fibroblasts were seeded at a density of 800 cells/well in DMEM (Gibco) supplemented with 1 mM sodium pyruvate (Gibco), 1% antibiotics (Biological Industries, Israel) and 5% fetal bovine serum (Hyclone) into 384 well microclear plates (Greiner). The plates were transferred by the robotic arm (RoMa) into an automated incubator (Liconic), integrated with the robotic system, where they were incubated at 37° C. with 5% CO2. Following 24 h incubation, the medium was replaced by the robot using medium supplemented with 10 μM of each screened compound (0.1% DMSO final concentration, all prepared by the robot). The screened compounds were part of the Diverset CL collection purchased from ChemBridge (10,084 out of 50,000 molecules).
Next, these cells were cultured for another 24 h in the automated incubator, and, using the robot, washed them with PBS (Biological Industries, Israel), the cells were fixed with 4% paraformaldehyde (PFA), washed again with PBS, neutralized the previously added PFA by ammonium chloride (Sigma Aldrich), washed with PBS, permeabilized with 0.1% Triton X-100 (Sigma Aldrich), and washed again with PBS.
Following this, a robot was used to treat the fixed cells with 0.5 g/dl diastase (or amylase, Sigma Aldrich) for 5 minutes at 37° C. in the automated incubator, wash with PBS, stained with PAS (Merck), Hoechst 33342 (Sigma Aldrich) and Cell Mask Deep Red (Molecular Probes) and wash with PBS. Images of stained cells were then acquired by the IN Cell Analyzer 2000 (GE Healthcare) and analyzed using the IN Cell Investigator (GE Healthcare) applying an algorithm that quantified the PAS signal within each Cell Mask stained cell.
Images were segmented based on the Cell Mask signal which was linked with the segmentation of the nuclei, employing an empirically established sensitivity and kernel size for allowing the best segmentation. Once these nucleus-cytoplasm complex objects were selected, the software calculated the number of these objects (cell number) as well as the intensity of the PAS signal within each of them. All the assay parameters (including the acquisition exposure times, objective, and the analysis parameters) were kept constant throughout the whole screening campaign for allowing comparison of signals obtained from different batches of assay within the campaign.
The assay was performed as mentioned above, but with compound concentrations of 1, 5, 10, and 50 μM, instead of a constant concentration of 10 μM.
The discarded data was presumably associated with cells affected by toxic compounds. In the remaining data, the measured population mean PB intensity was normalized. Based on a series of images used for training, compounds were considered as positive only where following treatment the normalized PB mean intensity was at least under −1.2 z-score of the scale. Following this approach, 85 potential hits out of the 10,084 screened compounds were selected (0.84%).

APBD skin fibroblasts = assay: Multi-parametric cell-phenotypic characterization of APBD skin fibroblasts; format: cell-based, human; settings: APBD fibroblasts treated with compound
Text: FIG. 10 presents a graph showing multi-parametric cell-phenotypic characterization of healthy control (HC) and APBD skin fibroblasts. Upper panel: the extent of deviation from healthy control of the cell features shown, ordered by the amount of deviation (-log (P value)). […] The different comparisons analyzed are shown at the bottom of the panel.
Next, the multi-parametric analysis of compound A, one of the compounds tested in the Gbe^Y329S/Y329S mouse model for APBD was completed. The different cell features in APBD fibroblasts of several patients were ordered according to the extent of their deviation from the same features in healthy fibroblasts.

[2] = system: APBD modeling mice (Gbe^Y329S/Y329S mouse model); assay: Motor parameters in APBD modeling mice; format: in vivo; settings: for ameliorating effect on motor parameters (summary): tested every two weeks
Protocol: This study was conducted in compounds A and B according to the schemes described in Tables 8 and 9, respectively.
As vehicle control, 0.1% DMSO was used. It is noteworthy that, in order to have a statistically significant number of animals, compound A was tested in male mice and compound B in female mice (no mixed cages were allowed).
APBD is an autosomal disease with no gender related symptoms and it was presumed that this experimental design is optimal. The mode of delivery of the compounds was intravenous (IV) injection for the first month, followed by subcutaneous injection due to lack of injection space and scaring in animal tails.
Tables 8 and 9 describe the study design for compounds A and B. both compounds were tested at the age of 4 months, two months prior to disease onset, in order to assess possible prophylactic effects, and at the age of 6 months, at disease onset, in order to assess corrective effects.
The effect of compounds A and B on various motor parameters was tested every two weeks. The results are shown in herein.
The point of reference is one time point prior to treatment initiation. Please note, since animals first treated with the compounds at 6 months of age were not injected at all before that age, they could not have been compared to animals pre-injected with vehicle. Therefore, the duration of the longitudinal studies for the cohorts first treated at the age of 6 months is shorter than that of the animals first treated at 4 months of age.

APBD mice = settings: mouse, in vivo
[3] = treated from 4 months of age (2 months before onset), two way ANOVA with repeated measures
[4] = treated from 4 months of age, Bonferroni's multiple comparisons test
[5] = treated from 6 months of age (at onset), two way ANOVA with repeated measures
[6] = treated from 6 months of age, Bonferroni's multiple comparisons test

Structure (SMILES): COCCN(Cc1sccc1C)C(=O)c1cc(C)[nH]c(=O)c1 [UDP #4, N-(2-methoxyethyl)-6-methyl-N-[(3-methyl-2-thienyl)methyl]-2-oxo-1,2-dihydropyridine-4-carboxamide]
- dose response of diastase resistant cell associated mean PAS intensity normalized by z-score [1]: lowered mean normalized PAS intensity in a non-dose responding manner
- area of respiring (TMRE labeled) mitochondria (APBD skin fibroblasts): decreased
- nuclear intensity (APBD skin fibroblasts): increased
- apathy, mobility and responsiveness to experimenter ([2]; 250 mg/kg, IV first month then subcutaneous): less apathic, more mobile and more responsive to intervention by the experimenter
- ameliorating effect on motor parameters (summary) ([2]; 250 mg/kg, IV first month then subcutaneous, listed as Compound A): ameliorate extension reflex, grip strength and gait
- ameliorating effect on motor parameters (summary) ([2]; 250 mg/kg, IV first month then subcutaneous, listed as compound A): improves the uniformity of step alteration
- average duration in movement in an open field test vs vehicle [2, 3]: not different from vehicle (p<0.1)
- average front paw grip strength vs vehicle [2, 3]: not different from vehicle (p<0.1)
- average gait length vs vehicle [2, 3]: not different from vehicle (p<0.1)
- average gait width vs vehicle [2, 3]: not different from vehicle (p<0.1)
- average latency to fall off a metal wire vs vehicle [2, 3]: not different from vehicle (p<0.1)
- average latency to fall off a rotating cylinder (rotarod) vs vehicle [2, 3]: not different from vehicle (p<0.1)
- average regularity of step distance (Coefficient of Variance of all R-R and L-L step distances) vs vehicle [2, 3]: significantly different from vehicle (p<0.01)
- average uniformity of step alternation (|0.5-(R-L/R-R)|) vs vehicle [2, 3]: not different from vehicle (p<0.1)
- extension reflex vs vehicle [2, 3]: different from vehicle with p<0.09
- average duration in movement in an open field test vs vehicle [2, 4]: no significant difference
- average front paw grip strength vs vehicle [2, 4]: a significant difference (p<0.05) between vehicle and treatment at 32 days after initiation of treatment
- average gait length vs vehicle [2, 4]: no significant difference
- average gait width vs vehicle [2, 4]: no significant difference
- average latency to fall off a metal wire vs vehicle [2, 4]: no significant difference
- average latency to fall off a rotating cylinder (rotarod) vs vehicle [2, 4]: no significant difference
- average regularity of step distance vs vehicle [2, 4]: a significant difference (p<0.05) between vehicle and treatment at 81 days after treatments initiation
- average uniformity of step alternation vs vehicle [2, 4]: a significant difference (p<0.05) between vehicle and treatment 95 days after treatment initiation
- extension reflex vs vehicle [2, 4]: no significant difference
- average duration in movement in an open field test vs vehicle [2, 5]: not different from vehicle (p<0.1)
- average front paw grip strength vs vehicle [2, 5]: different from vehicle with p<0.055
- average gait length vs vehicle [2, 5]: not different from vehicle (p<0.1)
- average gait width vs vehicle [2, 5]: not different from vehicle (p<0.1)
- average latency to fall off a metal wire vs vehicle [2, 5]: not different from vehicle (p<0.1)
- average latency to fall off a rotating cylinder (rotarod) vs vehicle [2, 5]: not different from vehicle (p<0.1)
- average regularity of step distance vs vehicle [2, 5]: not different from vehicle (p<0.1)
- average uniformity of step alternation (|0.5-(R-L/R-R)|) vs vehicle [2, 5]: significantly different from vehicle (p<0.06)
- extension reflex vs vehicle [2, 5]: not different from vehicle (p<0.1)
- average duration in movement in an open field test vs vehicle [2, 6]: no significant difference
- average front paw grip strength vs vehicle [2, 6]: no significant difference
- average gait length vs vehicle [2, 6]: no significant difference
- average gait width vs vehicle [2, 6]: no significant difference
- average latency to fall off a metal wire vs vehicle [2, 6]: no significant difference
- average latency to fall off a rotating cylinder (rotarod) vs vehicle [2, 6]: no significant difference
- average regularity of step distance vs vehicle [2, 6]: no significant difference
- average uniformity of step alternation vs vehicle [2, 6]: a significant difference (p<0.05) between vehicle and treatment 95 days after treatment initiation
- extension reflex vs vehicle [2, 6]: no significant difference

Structure (SMILES): CO[C@H]1C[C@@H]2CC[C@@H](C)[C@@](O)(O2)C(=O)C(=O)N2CCCC[C@H]2C(=O)O[C@H]([C@H](C)C[C@@H]2CC[C@@H](O)[C@H](OC)C2)CC(=O)[C@H](C)/C=C(\C)[C@@H](O)[C@@H](OC)C(=O)[C@H](C)C[C@H](C)/C=C/C=C/C=C/1C [rapamycin]
- toxic effects in APBD mice (APBD mice): toxic effects

Reference: patent publication US12065435B2, “Compounds for the treatment of glycogen storage disorders” (HADASIT MEDICAL RESEARCH SERVICES AND DEVELOPMENT LTD., priority 2017, dated 2024)
